Among the data in ChEMBL document CHEMBL6087476, “Positive Charge-Concentrated Dimeric Lipopeptides with Enhanced Protease Resistance: A Potential Solution for Systemic Bacterial Infections” (J Med Chem, 2025) are MIC, Activity and Stability values, retold here.

The subject of one series is Staphylococcus aureus. Nature of the series: Antimicrobial activity against Staphylococcus aureus 25923 assessed as increase in absorbance incubated for 20 to 22 hrs. The class given is functional. The note with it: time 20-22 hrs.
The test system of series [1] is Escherichia coli. Briefly: Antimicrobial activity against Escherichia coli ATCC 25922 assessed as increase in absorbance incubated for 20 to 22 hrs in presence of Fe3+ physiological salt. The note with it: time 20-22 hrs. In kind it is functional, organism-based.
The nature of series [2]: Stability of compound assessed as pepsin (unknown origin)-mediated compound structural integrity change at 8 mg/ml incubated for 1 to 8 hrs by 16.5% tricine-SDS-PAGE analysis. The class given is ADME. The note with it: human, time 1-8 hrs.
Series [3] relates to Escherichia coli. Briefly: Bactericidal activity against Escherichia coli ATCC 25922 assessed as reduction in bacterial viability at 4 uM measured within 2 hrs. In kind it is functional, organism-based.
A short description of series [4]: Toxicity in ICR mouse assessed as hepatic cords morphology at 5 to 20 mg/kg, ip measured after 3 days by histopathological H and E staining based assay. The class given is organism-based. The note with it: in vivo, 72 h, dose 5-20 mg/kg, time 3 day.

≈ marks a conversion by molar mass, not a printed value. Calls of active or inactive are those of the source.

As a reminder, the MIC is the smallest concentration in the dilution series that meets the test's criterion for growth inhibition. `CCCCCCCCCC(=O)NCCCC[C@H](N)C(=O)NCC(=O)NCC(=O)NCC(=O)N[C@H](CCCNC(=N)N)C(=O)N[C@@H](CCCNC(=N)N)C(=O)N[C@@H](CCCNC(=N)N)C(=O)N1CCC[C@H]1C(=O)N[C@@H](CSSC[C@H](NC(=O)[C@@H]1CCCN1C(=O)[C@H](CCCNC(=N)N)NC(=O)[C@H](CCCNC(=N)N)NC(=O)[C@@H](CCCNC(=N)N)NC(=O)CNC(=O)CNC(=O)CNC(=O)[C@@H](N)CCCCNC(=O)CCCCCCCCC)C(=O)O)C(=O)O`: in the series with Staphylococcus aureus, the minimal inhibitory concentration (MIC) turned out to be 4 µM (≈ 9.12 µg/mL). In addition, the Activity result with Escherichia coli [1] is listed as “Active; C-C10)C-C Demonstrated Superior Physiological Salt Tolerance In Comparison To (N-C10)C-C”; in series [4], “Non-toxic”. Further, the Stability entry in series [2] is “Stable”. For the same compound, the outcome with Escherichia coli [3] was inactive.
